Measured values from patent publication US10172846.
Where two headings read alike, the source gives them in different places.

How the values were obtained:
[1] = rcm bond, 14-membered ring
[2] = from (1R,2)-1-{[(1R,2R,4R)-2-(N′-tert-Butoxycarbonyl-N-hept-6-enyl-hydrazinocarbonyl)-4-(7-methoxy-2-phenyl-quinolin-4-yloxy)-cyclopentanecarbonyl]-amino}-2-vinyl-cyclopropanecarboxylic acid ethyl ester; rcm bond; 15-membered ring; Hoveyda-Grubbs II; DCM; 7.0 mM
[3] = rcm bond, Hoveyda-Grubbs 2nd generation

CCOC(=O)C12CC1C=CCCCCNC(=O)C1CC(Oc3cc(-c4ccccc4)nc4cc(OC)ccc34)CC1C(=O)N2C (centres unmarked)
ring closure, isolated yield ([1]; from 1-{[2-Hex-5-enyl-methyl-carbamoyl)-4-(7-methoxy-2-phenyl-quinolin-4-yloxy)-cyclopentanecarbonyl]-amino-2-vinyl-cyclopropanecarboxylic add ethyl ester, Hoveyda-Grubbs II, dichloroethane, 2.02 mM): 37%

CCOC(=O)C12CC1C=CCCCCNC(=O)C1CC(Oc3cc(-c4ccccc4)nc4cc(OC)ccc34)CC1C(=O)N2 (centres unmarked)
ring closure, isolated yield ([1]; from 1-{[2-Hex-5-enylcarbamoyl-4-(7-methoxy-2-phenyl-quinolin-4-yloxy)-cyclopentanecarbonyl]-amino}-2-vinyl-cycloprpanecarboxylic acid ethyl ester, Hoveyda-Grubbs II, DCM, 5.8 mM): 32%

CCOC(=O)[C@@]12C[C@H]1/C=C\CCCCCN(NC(=O)OC(C)(C)C)C(=O)[C@@H]1C[C@H](Oc3cc(-c4ccccc4)nc4cc(OC)ccc34)C[C@H]1C(=O)N2
ring closure, yield after HPLC [2]: 70% | ring closure, yield of all isomers ([3]; from C=CCCCCCN(NC(=O)OC(C)(C)C)C(=O)[C@@H]1C[C@H](Oc2cc(-c3ccccc3)nc3cc(OC)ccc23)C[C@H]1C(=O)N[C@]1(C(=O)OCC)C[C@H]1C=C, DCM, 6.97 mM, 40.0 °C, 16.0 h): 70%

CCOC(=O)[C@@]12C[C@H]1C=CCCCCNC(=O)[C@@H]1C[C@H](Oc3cc(-c4ccccc4)nc4cc(OC)ccc34)C[C@H]1C(=O)N2
ring closure, yield of all isomers ([3]; from C=CCCCCNC(=O)[C@@H]1C[C@H](Oc2cc(-c3ccccc3)nc3cc(OC)ccc23)C[C@H]1C(=O)N[C@]1(C(=O)OCC)C[C@H]1C=C, DCM, 5.8 mM, 40.0 °C): 32%

CCOC(=O)C12CC1C=CCCCCN(C)C(=O)C1CC(OS(=O)(=O)c3ccc(Br)cc3)CC1C(=O)N2 (centres unmarked)
ring closure, isolated yield ([1]; from 1-{(4-(4-Bromo-benzensulphonyloxy-2-(hex-5-enyl-methyl-carbamoyl)-cyclopentanecarbonyl-amino}2-vinyl-cyclopropanecarboxylic add ethyl ester)), Hoveyda-Grubbs I, DCM, 4.2 mM): 60%

CCOC(=O)[C@@]12C[C@H]1C=CCCCCN(C)C(=O)[C@@H]1C[C@H](Oc3cc(-c4ccccc4)nc4cc(OC)ccc34)C[C@H]1C(=O)N2
ring closure, yield of all isomers ([3]; from C=CCCCCN(C)C(=O)[C@@H]1C[C@H](Oc2cc(-c3ccccc3)nc3cc(OC)ccc23)C[C@H]1C(=O)N[C@]1(C(=O)OCC)C[C@H]1C=C, DCE, 2.02 mM, 83.0 °C): 37%

CN1CCCCC=CC2CC2(C(=O)NS(=O)(=O)C2CC2)NC(=O)C2CC(O)CC2C1=O (centres unmarked)
ring closure, isolated yield ([1]; from 4-Hydroxycyclopentane-1,2-dicarboxylic acid 1-[(1-cyclopropanesulphonylaminocarbonyl-2-vinylcyclopropyl)-amide] 2-(hex-5-enyl-methylamide), Hoveyda-Grubbs II, 1,2-dichloroethane, 5.4 mM, 160.0 °C): 26%
